Values joined by “and” are separate entries in the source; they are usually repeats but may differ in a detail not shown here. Equal values may be shown once.
Tests used:
[1] = biological target: T1, COX-2 (Homo sapiens, UniProt P35354); conditions: cited from earlier work
T1 sequence (P35354 18-604): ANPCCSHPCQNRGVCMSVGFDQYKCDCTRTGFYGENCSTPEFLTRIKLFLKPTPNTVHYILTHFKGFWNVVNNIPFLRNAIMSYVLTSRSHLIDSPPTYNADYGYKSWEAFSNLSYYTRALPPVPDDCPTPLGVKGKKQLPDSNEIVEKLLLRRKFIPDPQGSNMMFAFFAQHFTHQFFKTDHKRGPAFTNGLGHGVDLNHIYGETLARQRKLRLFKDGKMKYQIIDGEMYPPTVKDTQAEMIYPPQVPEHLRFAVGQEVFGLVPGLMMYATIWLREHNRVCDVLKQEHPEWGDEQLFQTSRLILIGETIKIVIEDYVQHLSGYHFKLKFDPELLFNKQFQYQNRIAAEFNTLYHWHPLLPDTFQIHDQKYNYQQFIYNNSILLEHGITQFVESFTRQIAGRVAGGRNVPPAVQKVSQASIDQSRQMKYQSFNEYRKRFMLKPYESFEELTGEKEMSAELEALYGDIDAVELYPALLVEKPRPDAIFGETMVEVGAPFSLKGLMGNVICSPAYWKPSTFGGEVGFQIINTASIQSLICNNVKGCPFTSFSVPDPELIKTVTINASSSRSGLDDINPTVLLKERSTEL

[2] = tested on: endometrial epithelial and stromal cells; conditions: previously reported; cited from earlier work
[3] = biological target: T2, PGES (Homo sapiens, UniProt O14684); conditions: read-out: IC50 for inhibition of PGES activity; cited from earlier work
T2 sequence (O14684 1-152): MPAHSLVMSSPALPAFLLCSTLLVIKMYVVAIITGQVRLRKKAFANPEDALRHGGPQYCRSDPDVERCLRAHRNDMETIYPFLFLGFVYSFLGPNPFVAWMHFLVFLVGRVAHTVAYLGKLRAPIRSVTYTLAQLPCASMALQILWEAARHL

[4] = tested on: FP receptor; conditions: cited from earlier work
[5] = tested on: TP; conditions: 10 μM; cited from earlier work
[6] = tested on: DP; conditions: 10 μM; cited from earlier work
[7] = biological target: EP2 (Homo sapiens, UniProt P43116); conditions: 10 μM; cited from earlier work
[8] = tested on: EP4; conditions: 10 μM; cited from earlier work
[9] = biological target: T3, IP receptor (Homo sapiens, UniProt P43119); assay: Cyclic AMP assay in Ishikawa cells; assay type: cell-based; conditions: 100 nM iloprost, 10 min, n=3, mean±SEM
T3 construct: from tissue; host or cells: minced human endometrial biopsy tissue
Excerpt: (§1) The Ishikawa endometrial epithelial cell line (Ishikawa cells) and endometrial stromal (ES) cells were propagated in DMEM F12 culture medium with glutamax (Invitrogen Ltd., Paisley, UK) supplemented with 10% foetal bovine serum (PAA Laboratories Ltd., Yeovil, UK). Endometrial stromal cells were a generous gift from Professor R W Kelly and they were derived from human endometrial biopsy tissue as described previously (Dunn et al (2002) J Clin Endocrinol Metab 87, 1898-1901). For cyclic AMP assay, cells were grown in 6 well plates to 70% confluence. They were starved overnight in serum free medium in the presence of indomethacin (3 μg/ml). Cells were then incubated in the same medium containing 1-methyl-3-isobutylxanthine at 37° C. for 30 minutes and treated with control medium or 100 nM iloprost for 10 minutes at 37° C. […] Data are presented as mean±SEM percentage increase in cAMP after treatment with iloprost, where the increase was calculated relative to the control samples. […] Proliferation was assessed using a colorimetric method, the CellTiter 96 Aqueous One Solution Cell Proliferation Assay (Promega, Southampton, UK) according to manufacturer's instructions. Twenty microlitres of the assay reagent (containing a tetrazolium compound, inner salt and an electron coupling reagent) were added to each well and samples were incubated at 37° C. for 2 hours and plates were read at 492 nm. […]

[10] = biological target: T3, IP receptor; assay: Whole tissue cyclic AMP assay in endometrial biopsy tissue; assay type: cell-based; conditions: 100 nM iloprost, 10 min, n=4
Method: Endometrial biopsies from across the menstrual cycle (n=8) were minced finely with scissors and divided into three portions. The tissue was incubated is overnight at 37° C. in a humidified 5% CO2 incubator in 2 ml RPMI (Sigma, UK) medium containing, 2 mmol” L-glutamine, 100 IU penicillin and 100 μg streptomycin and 3 μg/ml indomethacin (Sigma, Poole, UK). Following overnight incubation, the tissue was incubated in the same medium containing 1-methyl-3-isobutylxanthine (Sigma) at 37° C. for 30 min. It was then treated with control medium or 100 nM iloprost (a gift from Schering Health Care, Burgess Hill, UK) for 10 min. at 37° C. and lysed in 0.1M HCl and frozen until assayed. cAMP concentration was measured by ELISA (Biomol, Affiniti, Exeter, UK) according to the manufacturer's instructions and normalised to protein concentration determined by a modification of the method of Lowry (Bio-Rad, Hemel Hempstead, UK).

[11] = biological target: T3, IP receptor; assay: Cyclic AMP assay in endometrial stromal (ES) cells; assay type: cell-based; conditions: 100 nM iloprost, 10 min, n=3, mean±SEM
Excerpt: as §1

[12] = tested on: Ishikawa endometrial epithelial cell line; assay: Proliferation assay (CellTiter 96) in Ishikawa cells; assay type: cell-based, human; conditions: 100 nM iloprost, 24 hours, n=5, mean±SEM
Excerpt: as §1

[13] = tested on: endometrial stromal (ES) cells; assay: Proliferation assay (CellTiter 96) in ES cells; assay type: cell-based, human; conditions: 100 nM iloprost, 24 hours, n=6, mean±SEM
Excerpt: as §1

T3 sequence (P43119 whole entry): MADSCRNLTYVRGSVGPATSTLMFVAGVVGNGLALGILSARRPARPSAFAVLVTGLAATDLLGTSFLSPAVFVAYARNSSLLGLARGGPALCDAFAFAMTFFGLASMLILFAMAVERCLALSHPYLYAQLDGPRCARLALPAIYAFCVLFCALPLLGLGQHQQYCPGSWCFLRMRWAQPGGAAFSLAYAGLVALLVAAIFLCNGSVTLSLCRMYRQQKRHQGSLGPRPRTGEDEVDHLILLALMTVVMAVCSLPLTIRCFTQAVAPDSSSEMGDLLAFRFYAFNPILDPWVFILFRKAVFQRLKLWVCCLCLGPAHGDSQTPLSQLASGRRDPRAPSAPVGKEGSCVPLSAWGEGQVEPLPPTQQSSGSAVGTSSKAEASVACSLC
Chain of EP2 (P43116 whole entry): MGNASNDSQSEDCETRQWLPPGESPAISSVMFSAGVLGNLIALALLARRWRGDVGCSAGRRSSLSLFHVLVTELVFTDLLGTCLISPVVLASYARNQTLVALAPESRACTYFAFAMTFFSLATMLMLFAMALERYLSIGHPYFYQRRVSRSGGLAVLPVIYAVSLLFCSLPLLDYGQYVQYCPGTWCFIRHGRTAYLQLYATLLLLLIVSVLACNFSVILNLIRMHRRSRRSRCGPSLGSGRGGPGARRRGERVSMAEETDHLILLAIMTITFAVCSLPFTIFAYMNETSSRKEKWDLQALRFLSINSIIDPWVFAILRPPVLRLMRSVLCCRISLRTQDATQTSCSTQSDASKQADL

## CS(=O)(=O)Nc1cc2c(cc1Sc1ccc(F)cc1F)C(=O)CC2 [L 475 L337]
[1]
  specificity for COX-2 inhibition over COX-1 inhibition: 500 fold

## CCCCC[C@H](O)/C=C/[C@H]1[C@H](O)CC(=O)[C@@H]1C/C=C\CCCC(=O)O [PGE2]
[2]
  increase in proliferation: 25%

## CSc1ccc(/C=C2/C(C)=C(CC(=O)O)c3cc(F)ccc32)cc1 [sulindac sulphide]
[3]
  IC50: 80 µM

## CCCCC/C=C\C\C=C/C=C/C=C/[C@@H](SC[C@H](NC(=O)CC[C@H](N)C(=O)O)C(=O)NCC(=O)O)[C@@H](O)CCCC(=O)O [leukotriene C4]
[3]
  IC50: 5 µM

## CCCCC[C@H](O)/C=C/[C@@H]1[C@@H](C/C=C\CCCC(=O)O)[C@@H](O)C[C@H]1O [PGF2α]
[2]
  increase in proliferation: 31%

## Cc1ccc(S(=O)(=O)NC(=O)NN2CCCCCC2)cc1 [tolazamide]
[4]
  FP receptor antagonist potency: very weak antagonists

## O=C(O)CCC/C=C\C[C@@H]1[C@@H](/C=C/[C@H](O)C2Cc3ccccc3C2)[C@@H](F)C[C@@H]1O [AL-8810, (5Z, 13E)-(9S, 11S,15R)-9,15-dihydroxy-11-fluoro-15-(2-indanyl)-16, 17, 18, 19, 20-pentanor-5,13-prostadienoic acid]
[5]
  inhibition of functional responses of TP receptor: not to significantly inhibit
[6]
  inhibition of functional responses of DP receptor: not to significantly inhibit
[7]
  inhibition of functional responses of EP2 receptor: not to significantly inhibit
[4]
  FP receptor antagonist potency: micromolar potency
[8]
  inhibition of functional responses of EP4 receptor: not to significantly inhibit

## CC#CCC(C)[C@H](O)/C=C/[C@@H]1[C@H]2C/C(=C/CCCC(=O)O)C[C@H]2C[C@H]1O (stereo partly shown) [iloprost]
[9]
  cAMP generation, of control values: 166%±27.6%
[10]; samples from proliferative phase of the menstrual cycle
  fold increase in cAMP generation: 4.83±0.74 fold
[10]; samples from secretory phase of the menstrual cycle
  fold increase in cAMP generation: 2.07±0.38 fold and 2.07±0.39 fold
[11]
  cAMP generation, of control values: 37,936%±18,464%
[12]
  proliferation, of control values: 109.4%±2.4%
[13]
  proliferation, of control values: 112%±3.8%

## CS(=O)(=O)Nc1ccc([N+](=O)[O-])cc1Oc1ccccc1 [Nimesulide, N-(4-nitro-2-phenoxyphenyl) methanesulfonamide]
[1]
  specificity for COX-2 inhibition over COX-1 inhibition: 100 fold

## CCCCNC(=O)NS(=O)(=O)c1ccc(C)cc1 [tolbutamide]
[4]
  FP receptor antagonist potency: very weak antagonists
